From ChEMBL document CHEMBL1150721, “Hepatoprotective activity of polyphenolic compounds from Cynara scolymus against CCl4 toxicity in isolated rat hepatocytes” (1987)

Tests used:
[1] = tested on: Hepatocyte; assay: Hepatoprotective activity against carbon tetrachloride-induced hepatotoxicity in fasted Sprague-Dawley rat hepatocytes assessed as serum glutamic oxaloacetic transaminase release at 0.01 mg/ml administered before 10 mins of carbon tetrachloride challenge measured after 30 mins; format: functional
[2] = tested on: Hepatocyte; assay: Hepatoprotective activity against carbon tetrachloride-induced hepatotoxicity in fasted Sprague-Dawley rat hepatocytes assessed as serum glutamic oxaloacetic transaminase release at 3 mg/ml administered before 10 mins of carbon tetrachloride challenge measured after 30 mins; format: functional
[3] = tested on: Hepatocyte; assay: Hepatoprotective activity against carbon tetrachloride-induced hepatotoxicity in fasted Sprague-Dawley rat hepatocytes assessed as serum glutamic pyruvate transaminase release at 0.1 mg/ml administered before 10 mins of carbon tetrachloride challenge measured after 30 mins; format: functional
[4] = tested on: Hepatocyte; assay: Hepatoprotective activity against carbon tetrachloride-induced hepatotoxicity in fasted Sprague-Dawley rat hepatocytes assessed as serum glutamic oxaloacetic transaminase release at 0.1 mg/ml administered before 10 mins of carbon tetrachloride challenge measured after 30 mins; format: functional
[5] = tested on: Hepatocyte; assay: Hepatoprotective activity against carbon tetrachloride-induced hepatotoxicity in fasted Sprague-Dawley rat hepatocytes assessed as serum glutamic oxaloacetic transaminase release at 1 mg/ml administered before 10 mins of carbon tetrachloride challenge measured after 30 mins; format: functional
[6] = tested on: Hepatocyte; assay: Hepatoprotective activity against carbon tetrachloride-induced hepatotoxicity in fasted Sprague-Dawley rat hepatocytes assessed as serum glutamic pyruvate transaminase release at 3 mg/ml administered before 10 mins of carbon tetrachloride challenge measured after 30 mins; format: functional
[7] = tested on: Hepatocyte; assay: Hepatoprotective activity against carbon tetrachloride-induced hepatotoxicity in fasted Sprague-Dawley rat hepatocytes assessed as serum glutamic pyruvate transaminase release at 0.01 mg/ml administered before 10 mins of carbon tetrachloride challenge measured after 30 mins; format: functional
[8] = tested on: Hepatocyte; assay: Hepatoprotective activity against carbon tetrachloride-induced hepatotoxicity in fasted Sprague-Dawley rat hepatocytes assessed as serum glutamate pyruvate transaminase release at 1 mg/ml administered before 10 mins of carbon tetrachloride challenge measured after 30 mins; format: functional
[9] = Effect on glutamate oxaloacetic transaminase activity at 1 mg/ml
[10] = target: T1, Alanine aminotransferase 1 (Homo sapiens) (UniProt P24298); assay: Effect on glutamic pyruvate transaminase activity at 1 mg/ml
T1 sequence (whole entry): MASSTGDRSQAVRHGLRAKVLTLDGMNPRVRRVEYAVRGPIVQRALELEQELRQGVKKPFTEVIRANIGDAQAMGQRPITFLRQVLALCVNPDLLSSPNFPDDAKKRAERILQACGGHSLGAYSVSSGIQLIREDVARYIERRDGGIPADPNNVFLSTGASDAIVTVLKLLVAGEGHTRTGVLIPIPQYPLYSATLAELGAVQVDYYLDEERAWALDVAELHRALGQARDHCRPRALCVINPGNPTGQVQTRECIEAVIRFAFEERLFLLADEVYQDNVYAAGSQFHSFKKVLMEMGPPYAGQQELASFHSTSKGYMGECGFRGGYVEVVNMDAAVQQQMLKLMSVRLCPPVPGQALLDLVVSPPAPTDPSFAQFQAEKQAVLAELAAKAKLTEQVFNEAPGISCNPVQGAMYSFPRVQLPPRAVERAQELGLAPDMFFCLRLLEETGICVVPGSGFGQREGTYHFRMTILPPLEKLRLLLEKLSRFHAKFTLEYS

[11] = Effect on glutamate oxaloacetic transaminase activity at 0.1 mg/ml
[12] = target: T1, Alanine aminotransferase 1 (Homo sapiens); assay: Effect on glutamic pyruvate transaminase activity at 0.1 mg/ml
[13] = target: T1, Alanine aminotransferase 1 (Homo sapiens); assay: Effect on glutamic pyruvate transaminase activity at 3 mg/ml
[14] = Effect on glutamate oxaloacetic transaminase activity at 3 mg/ml

Activity [9] | Activity [10] | Activity [11] | Activity [12] | Activity [13] | Activity [14] | Compound | Activity [1] | Activity [2] | Activity [3] | Activity [4] | Activity [5] | Activity [6] | Activity [7] | Activity [8]
 |  |  |  |  |  | O=C(O)[C@]1(O)C[C@@H](O)[C@@H](O)[C@H](O)C1 [QUINIC ACID] | 18.4% | 21.2% | 18.1% | 21.9% | 21.2% | 17% | 15.5% | 17.4%
139 U/L | 111 U/L |  |  |  |  | O=c1cc(-c2ccc(O)c(O)c2)oc2cc(O[C@@H]3O[C@H](CO)[C@@H](O)[C@H](O)[C@H]3O)cc(O)c12 [GALUTEOLIN] | 21.9% | 22.8% | 14.9% | 20.4% | 21.1% | 20.9% | 15.9% | 15.9%
 |  | 127 U/L | 103 U/L |  |  | Oc1cc(O)c2c(c1)O[C@H](c1ccc(O)c(O)c1)[C@@H](O)C2 [CIANIDANOL] | 16.8% | 22.4% | 14.3% | 18.3% | 21% | 20.1% | 13.5% | 17.3%
 |  |  |  |  |  | O=C(/C=C/c1ccc(O)c(O)c1)O[C@@H]1C[C@](O)(C(=O)O)C[C@@H](O)[C@H]1O [CHLOROGENIC ACID] | 19.5% | 20.6% | 15.3% | 19.4% | 20.6% | 15.9% | 16.7% | 17.7%
123 U/L | 97 U/L |  |  |  |  | O=C(O)/C=C/c1ccc(O)c(O)c1 [CAFFEIC ACID] | 21% | 22.1% | 17.5% | 19.9% | 18.6% | 16.7% | 19% | 13.4%
126 U/L | 103 U/L |  |  | 110 U/L | 123 U/L | O=C(/C=C/c1ccc(O)c(O)c1)O[C@@H]1C[C@@](OC(=O)/C=C/c2ccc(O)c(O)c2)(C(=O)O)C[C@@H](O)[C@@H]1O [CYNARIN] | 17.6% | 16.5% | 16.8% | 17.9% | 17.6% | 13.3% | 16.3% | 13.9%
